Measurements reported in patent US11707442B2, “Antibacterial and antifungal compounds” (The General Hospital Corporation, priority 2015, dated 2023).
Converted amounts (≈) assume the structure as drawn. Read-outs that look alike come from different tables or passages of the source.

What was measured:
S. aureus = test: Minimal inhibitory concentration (MIC), broth microdilution; format: cell-based, Staphylococcus aureus
Summary of the method: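 MIC values against methicillin-resistant Staphylococcus aureus were determined by standard broth microdilution following Clinical and Laboratory Standards Institute guidance (CLSI document M07-A8). Each well held 100 μl of test compound plus bacterial cells in MH broth, with the starting OD600 set to 0.03. Plates were incubated 18 hrs at 35° C. and absorbance was then read at 595 nm.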

E. aerogenes ATCC 13048 = test: MIC, broth microdilution; format: cell-based, Enterobacter aerogenes; conditions: Klebsiella aerogenes, ATCC13048; E. aerogenes ATCC 13048; read-out: Minimum inhibitory concentration
Excerpt: (§1) Bacterial strains and growth conditions and persister isolation: methicillin-resistant S. aureus (MRSA) strain MW2 BAA-1707, vancomycin-resistant S. aureus strain VRS 1, 11 clinical S. aureus isolates, 8 clinical Enterococcus faecium isolates, Klebsiella pneumoniae WGLW2 (BEI Resources, Manassas, Va., USA), Acinetobacter baumannii ATCC 17978, Pseudomonas aeruginosa PA14, and Enterobacter aerogenes ATCC 13048 were used to test antimicrobial activity (See Table 1a). S. aureus and E. faecium strains were grown in tryptic soy broth (TSB) (BD, Franklin Lakes, N.J., USA) or brain-heart infusion (BHI) broth (BD, Franklin Lakes, N.J., USA), respectively at 37° C. at 225 rpm. K. pneumoniae, A. baumannii, P. aeruginosa, and E. aerogenes were grown in Luria Bertani (LB) broth (BD, Franklin Lakes, N.J., USA).
(§2) To test the bacterial MICs for compounds described herein, the total volume in each well was 100 μl of test compounds and bacterial cells in MH broth. […] The bacterial concentration was adjusted to an initial OD600 of 0.03. After incubation at 35° C. for 18 hrs, the absorbance was measured at 595 nm in accordance with CLSI document M07-A8. The MICs of antibiotics were determined by the standard microdilution method recommended by the Clinical and Laboratory Standards Institute.

A. baumannii = test: MIC, broth microdilution; format: cell-based, Acinetobacter baumannii; conditions: Acinetobacter baumannii, ATCC17978; A. baumannii ATCC 17978; read-out: Minimum inhibitory concentration
Excerpt: as §1, §2

[1] = system: Exponential-phase MRSA cells; test: Killing kinetics assay; format: cell-based, Staphylococcus aureus; conditions: 10×MIC, result in words
Method: Killing kinetics assay. An S. aureus overnight culture was diluted 1:10,000 in 25 ml fresh TSB in a 250 ml flask. In order to obtain exponential-phase cells, the diluted cell suspension was incubated at 37° C., with shaking at 225 rpm for 4 h until the OD600 nm was 0.4 (˜2×10^7 CFU/ml). 0.5 ml of the exponential phase cell culture was added to the wells of a 2 ml deep well assay block (Corning Costar 3960) containing 0.5 ml of pre-warmed TSB with twice the desired concentrations of compounds. The assay block was sealed with a gas-permeable Breathe-Easy membrane and incubated at 37° C. shaking at 225 rpm. At specific times, 50 μl samples were removed, serially diluted and spot-plated onto tryptic soy agar (TSA, BD) plates to enumerate the number of cells. These experiments were conducted in triplicate.
Colony forming unit counts of cells were measured by serial dilution and plating on TSA plates. The data points on the x-axis are below the level of detection (2×10^2 CFU/mL). Results are shown as means±s.d.; n=3.

P. aeruginosa = test: MIC, broth microdilution; format: cell-based, Pseudomonas aeruginosa; conditions: Pseudomonas aeruginosa; P. aeruginosa PA14; read-out: Minimum inhibitory concentration
Excerpt: as §1, §2

[2] = system: primary human hepatocytes; test: Hepatotoxicity (WST-1); format: cell-based; conditions: at 32 μg/ml, 24 h
Method: Hepatotoxicity. Cryopreserved primary human hepatocytes were purchased from Cell Resource Core at Massachusetts General Hospital (Boston, Mass., USA). The hepatocytes were cultured in collagen sandwiched configuration in 24-well plates, as described previously (See, e.g., Dunn, J. C., et al. Hepatocyte function and extracellular matrix geometry: long-term culture in a sandwich configuration. FASEB J. 3, 174-177 (1989); Dunn, J. C., et al. Hepatocytes in collagen sandwich: evidence for transcriptional and translational regulation. J. Cell Biol. 116, 1043-1053 (1992); and Sharma, N. S. et al. Metabolic profiling based quantitative evaluation of hepatocellular metabolism in presence of adipocyte derived extracellular matrix. PLoS ONE 6, e20137 (2011)). Briefly, 0.4×10^6 live cells were seeded in 24-well plates coated with rat tail collagen type I. In order for cells to attach onto collagen gel, the 24-well plates were incubated in a humidified 5% CO2 incubator at 37° C. for 4 hours. The cells were washed and then cultured in 0.5 ml standard hepatocyte culture medium consisting of pre-warmed DMEM media supplemented with 10% FBS, 0.5 U/ml insulin, 14 ng/ml glucagon, 20 ng/ml EGF, 7.5 μg/ml hydrocortisone and 200 U/ml penicillin-streptomycin. The cell cultures were incubated in a humidified 5% CO2 incubator at 37° C. At 24 h after seeding, a top layer of collagen gel was deposited on the hepatocytes attached to the bottom collagen layer and incubated for another 24 h, then the hepatocytes were treated with a range of concentrations of retinoids for 24 h. […] WST-1 reduction was measured at absorbance 450 nm. The percent […] relative to that of the no-treatment control was calculated. […]
0.4×10^6 primary human hepatocytes cultured in a collagen gel sandwich system were treated with a range of concentration of the synthetic retinoids for 24 h. Cell viability was calculated based on the absorbance readings at 450 nm at 4 h after adding WST-1 using the following equation: % viability=(Abssample−Absblank)/(Absnon-treated−Absblank)×100. […]

[3] = Staphylococcus aureus, MRSA, 28 clinical MRSA isolates, 28/28 isolates, read-out: MIC
[4] = Staphylococcus aureus, S. aureus BF1, read-out: Minimum inhibitory concentration
[5] = Staphylococcus aureus, S. aureus BF2, read-out: Minimum inhibitory concentration
[6] = Staphylococcus aureus, S. aureus BF3, read-out: Minimum inhibitory concentration
[7] = Staphylococcus aureus, S. aureus BF4, read-out: Minimum inhibitory concentration
[8] = Staphylococcus aureus, S. aureus BF5, read-out: Minimum inhibitory concentration
[9] = Staphylococcus aureus, S. aureus BF6, read-out: Minimum inhibitory concentration
[10] = Staphylococcus aureus, S. aureus BF7, read-out: Minimum inhibitory concentration
[11] = Staphylococcus aureus, S. aureus BF8, read-out: Minimum inhibitory concentration
[12] = Staphylococcus aureus, S. aureus BF9, read-out: Minimum inhibitory concentration
[13] = Staphylococcus aureus, S. aureus BF10, read-out: Minimum inhibitory concentration
[14] = Staphylococcus aureus, S. aureus BF11, read-out: Minimum inhibitory concentration
[15] = Staphylococcus aureus, S. aureus JE2 (wild-type), read-out: MIC
[16] = Staphylococcus aureus, S. aureus MW2, read-out: Minimum inhibitory concentration
[17] = Staphylococcus aureus, S. aureus MW2 mutant SP1-8 (graS)
[18] = Staphylococcus aureus, S. aureus MW2 mutant SP1-48 (graS, manA)
[19] = Staphylococcus aureus, S. aureus MW2 mutant SP1-74 (graS, manA, MW2474)
[20] = Staphylococcus aureus, S. aureus MW2 mutant SP1-100 (graS, manA, MW2474)
[21] = Staphylococcus aureus, S. aureus MW2 mutant SP2-13 (yjbH)
[22] = Staphylococcus aureus, S. aureus MW2 mutant SP2-52 (yjbH, dltB)
[23] = Staphylococcus aureus, S. aureus MW2 mutant SP2-59 (yjbH, dltB, manA)
[24] = Staphylococcus aureus, S. aureus MW2 mutant SP2-65 (yjbH, dltB, manA, MW1685)
[25] = Staphylococcus aureus, S. aureus MW2 mutant SP2-100 (yjbH dltB, manA, MW1685)
[26] = Staphylococcus aureus, S. aureus MW2 serial passage culture SP1-1 (no mutated gene)
[27] = Staphylococcus aureus, S. aureus MW2 serial passage culture SP2-1 (no mutated gene)
[28] = Staphylococcus aureus, S. aureus NE896 (JE2 yjbH::ϕNΣ)
[29] = Staphylococcus aureus, S. aureus NE1645 (JE2 manA::ϕNΣ)
[30] = Staphylococcus aureus, S. aureus NE1756 (JE2 graS::ϕNΣ)
[31] = Staphylococcus aureus, S. aureus VRS1, read-out: Minimum inhibitory concentration
[32] = Staphylococcus aureus, methicillin resistant S. aureus (MRSA) strain MW2, read-out: MIC

SMILES	MIC (S. aureus; [4]) [µg/mL]	MIC (S. aureus; [5]) [µg/mL]	MIC (S. aureus; [6]) [µg/mL]	MIC (S. aureus; [7]) [µg/mL]	MIC (S. aureus; [8]) [µg/mL]	MIC (S. aureus; [9]) [µg/mL]	MIC (S. aureus; [10]) [µg/mL]	MIC (S. aureus; [11]) [µg/mL]	MIC (S. aureus; [12]) [µg/mL]	MIC (S. aureus; [13]) [µg/mL]	MIC (S. aureus; [14]) [µg/mL]	MIC (S. aureus; [15]) [µg/mL]	MIC (S. aureus; [16]) [µg/mL]	MIC (S. aureus; [28]) [µg/mL]	MIC (S. aureus; [29]) [µg/mL]	MIC (S. aureus; [30]) [µg/mL]	MIC (S. aureus; [31]) [µg/mL]	MIC (S. aureus; [32]) [µg/mL]	MIC (E. aerogenes ATCC 13048) [µg/mL]	MIC (A. baumannii) [µg/mL]	other results
O=C(O)c1ccc(-c2ccc3cc(O)c(C45CC6CC(CC(C6)C4)C5)cc3c2)cc1 [CD1530, 4-(6-hydroxy-7-tricyclo[3.3.1.13,7]dec-1-yl-2-naphthalenyl)-benzoic acid]	2 (≈ 5.02 µM)	1 (≈ 2.51 µM)	1 (≈ 2.51 µM)	1 (≈ 2.51 µM)	1 (≈ 2.51 µM)	1 (≈ 2.51 µM)	1 (≈ 2.51 µM)	1 (≈ 2.51 µM)	2 (≈ 5.02 µM)	1 (≈ 2.51 µM)	1 (≈ 2.51 µM)	1.5 (≈ 3.76 µM)	1 (≈ 2.51 µM)	2 (≈ 5.02 µM)	3 (≈ 7.53 µM)	2 (≈ 5.02 µM)	1 (≈ 2.51 µM)	1 (≈ 2.51 µM)	> 64	> 64	MIC (S. aureus; [3]): ≤ 2 µg/mL; MIC (S. aureus; [17]): 1.5 µg/mL (≈ 3.76 µM); MIC (S. aureus; [18]): 2 µg/mL (≈ 5.02 µM); MIC (S. aureus; [19]): 2 µg/mL (≈ 5.02 µM); MIC (S. aureus; [20]): 2 µg/mL (≈ 5.02 µM); MIC (S. aureus; [21]): 1.5 µg/mL (≈ 3.76 µM); MIC (S. aureus; [22]): 1.5 µg/mL (≈ 3.76 µM); MIC (S. aureus; [23]): 2 µg/mL (≈ 5.02 µM); MIC (S. aureus; [24]): 2 µg/mL (≈ 5.02 µM); MIC (S. aureus; [25]): 2 µg/mL (≈ 5.02 µM); MIC (S. aureus; [26]): 1 µg/mL (≈ 2.51 µM); MIC (S. aureus; [27]): 1 µg/mL (≈ 2.51 µM); killing kinetics [1]: fast killing kinetics; MIC (P. aeruginosa): > 64 µg/mL; toxicity to primary human hepatocytes [2]: did not cause significant toxicity
O=C(O)/C=C/c1ccc(-c2ccc(O)c(C34CC5CC(CC(C5)C3)C4)c2)cc1 [Adarotene, (2E)-3-(4′-Hydroxy-3′-tricyclo[3.3.1.13,7]dec-1-yl[1,1′-biphenyl]-4-yl)-2-propenoic acid]	4 (≈ 10.7 µM)	2 (≈ 5.34 µM)	2 (≈ 5.34 µM)	2 (≈ 5.34 µM)	2 (≈ 5.34 µM)	2 (≈ 5.34 µM)	2 (≈ 5.34 µM)	2 (≈ 5.34 µM)	2 (≈ 5.34 µM)	2 (≈ 5.34 µM)	2 (≈ 5.34 µM)	2.5 (≈ 6.68 µM)	2 (≈ 5.34 µM)	4 (≈ 10.7 µM)	4 (≈ 10.7 µM)	4 (≈ 10.7 µM)	1 (≈ 2.67 µM)	2 (≈ 5.34 µM)	> 64	> 64	MIC (S. aureus; MRSA MW2, text b656, read-out: MIC): 2 µg/mL (≈ 5.34 µM); MIC (S. aureus; Staphylococcus aureus, MRSA, 28 clinical MRSA isolates, 1 strain, read-out: MIC): 4 µg/mL (≈ 10.7 µM); MIC (S. aureus; [17]): 3 µg/mL (≈ 8.01 µM); MIC (S. aureus; [18]): 4 µg/mL (≈ 10.7 µM); MIC (S. aureus; [19]): 4 µg/mL (≈ 10.7 µM); MIC (S. aureus; [20]): 4 µg/mL (≈ 10.7 µM); MIC (S. aureus; [21]): 3 µg/mL (≈ 8.01 µM); MIC (S. aureus; [22]): 3 µg/mL (≈ 8.01 µM); MIC (S. aureus; [23]): 4 µg/mL (≈ 10.7 µM); MIC (S. aureus; [24]): 4 µg/mL (≈ 10.7 µM); MIC (S. aureus; [25]): 4 µg/mL (≈ 10.7 µM); MIC (S. aureus; [26]): 2 µg/mL (≈ 5.34 µM); MIC (S. aureus; [27]): 2 µg/mL (≈ 5.34 µM); killing kinetics [1]: fast killing kinetics; MIC (P. aeruginosa): > 64 µg/mL; toxicity to primary human hepatocytes [2]: did not cause significant toxicity
O=C(O)c1ccc2cc(-c3ccc(O)c(C45CC6CC(CC(C6)C4)C5)c3)ccc2c1 [CD437, 6-(4-hydroxy-3-tricyclo[3.3.1.13,7]dec-1-ylphenyl)-2-naphthalenecarboxylic acid]	2 (≈ 5.02 µM)	1 (≈ 2.51 µM)	1 (≈ 2.51 µM)	2 (≈ 5.02 µM)	1 (≈ 2.51 µM)	1 (≈ 2.51 µM)	1 (≈ 2.51 µM)	1 (≈ 2.51 µM)	1 (≈ 2.51 µM)	1 (≈ 2.51 µM)	1 (≈ 2.51 µM)	1.5 (≈ 3.76 µM)	1 (≈ 2.51 µM)	2 (≈ 5.02 µM)	3 (≈ 7.53 µM)	2 (≈ 5.02 µM)	1 (≈ 2.51 µM)	1 (≈ 2.51 µM)	> 64	> 64	MIC (S. aureus; [3]): ≤ 2 µg/mL; killing kinetics [1]: fast killing kinetics; MIC (P. aeruginosa): > 64 µg/mL; toxicity to primary human hepatocytes [2]: did not cause significant toxicity
